The results in this text go back to patent publication US11090304B2 (Amgen Inc., priority 2018, dated 2021).

pIC50: −log10 of the molar value.

Usually pIC50 stands for the negative decadic logarithm of the IC50, by convention in mol/L.

The target in one assay is GDP-bound KRAS protein (aa 1-169), containing both G12C and C118A amino acid substitutions (Homo sapiens, UniProt P01116, C118A/G12C). As to the kind of experiment: Coupled nucleotide exchange assay (SOS-mediated, AlphaScreen). It counts as biochemical.
GDP-bound KRAS protein (aa 1-169), containing both G12C and C118A amino acid substitutions, sequence (P01116 1-169 isoform P01116-2 G12C/C118A): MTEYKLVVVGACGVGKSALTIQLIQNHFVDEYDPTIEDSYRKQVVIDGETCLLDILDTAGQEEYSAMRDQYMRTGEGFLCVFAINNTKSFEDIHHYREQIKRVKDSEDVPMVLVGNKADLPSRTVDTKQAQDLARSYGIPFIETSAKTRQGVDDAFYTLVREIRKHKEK
Settings: not given
As to `C=CC(=O)N1[C@@H]2C[C@H]1CN(c1nc(=O)n(-c3c(C)ccnc3C(C)C)c3nc(-c4ccccc4F)c(Cl)cc13)C2` (atropisomer, axis not shown; (M)) [Example 135, (M)-6-Chloro-7-(2-fluorophenyl)-1-(4-methyl-2-(2-propanyl)-3-pyridinyl)-4-((1R,5S)-6-(2-propenoyl)-3,6-diazabicyclo[3.1.1]heptan-3-yl)pyrido[2,3-d]pyrimidin-2(1H)-one], the “Coupled exchange IC50 (5 min)” value is recorded as 3.32 | nda μM.

The same assay, now with this note: 5 min compound pre-incubation.
For the compound `C=CC(=O)N1CCN(c2nc(=O)n(-c3ccccc3C(C)C)c3nc(Cl)c(Cl)cc23)[C@@H](C)C1` (atropisomer, axis not shown; (M)) [Example 61-1-1, (M)-6,7-Dichloro-4-((2S)-2-methyl-4-(2-propenoyl)-1-piperazinyl)-1-(2-(2-propanyl)phenyl)pyrido[2,3-d]pyrimidin-2(1H)-one], the “Coupled exchange IC50 (5 min)” value was 2.94 | nda μM.

In the case of `C=CC(=O)N1CCN(c2nc(=O)n(-c3c(C)ccnc3C(C)C)c3nc(Cl)c(Cl)cc23)[C@@H](C)C1` (atropisomer, axis not shown; (M)) [Example 61-2-2, (M)-6,7-dichloro-1-(4-methyl-2-(2-propanyl)-3-pyridinyl)-4-((2S)-2-methyl-4-(2-propenoyl)-1-piperazinyl)pyrido[2,3-d]pyrimidin-2(1H)-one], the “Coupled exchange IC50 (5 min)” value is recorded as 2.37 | nda μM. Consider `C=CC(=O)N1CCN(c2nc(=O)n(-c3c(C)ccnc3C(C)C)c3nc(-c4nc(N)ccc4F)c(F)cc23)[C@@H](C)C1` (atropisomer, axis not shown; (M)) [Example 65-2, (M)-7-(6-amino-3-fluoro-2-pyridinyl)-6-fluoro-1-(4-methyl-2-(2-propanyl)-3-pyridinyl)-4-((2S)-2-methyl-4-(2-propenoyl)-1-piperazinyl)pyrido[2,3-d]pyrimidin-2(1H)-one], for which the “Coupled exchange IC50 (5 min)” value is 1.31 | nda μM. The same measure, in the same setting: as for `C=CC(=O)N1CCN(c2nc(=O)n(-c3c(C)ccnc3C(C)C)c3nc(-c4cc(F)ccc4O)c(F)cc23)C(C)C1` (atropisomer, axis not shown; (M)) [Example 72-1, (M)-6-Fluoro-7-(5-fluoro-2-hydroxyphenyl)-1-(4-methyl-2-(2-propanyl)-3-pyridinyl)-4-((2S)-2-methyl-4-(2-propenoyl)-1-piperazinyl)pyrido[2,3-d]pyrimidin-2(1H)-one], the figure is 1.17 | nda μM; as for `C=CC(=O)N1CCN(c2nc(=O)n(-c3c(C)ccnc3C(C)C)c3nc(-c4cccc(F)c4O)c(F)cc23)[C@@H](C)C1` (atropisomer, axis not shown; (M)) [Example 72-3, (M)-6-fluoro-7-(3-fluoro-2-hydroxyphenyl)-1-(4-methyl-2-(2-propanyl)-3-pyridinyl)-4-((2S)-2-methyl-4-(2-propenoyl)-4-piperazinyl)pyrido[2,3-d]pyrimidin-2(1H)-one], 3.29 | nda μM; as for `C=CC(=O)N1CCN(c2nc(=O)n(-c3c(C)ccnc3C(C)C)c3nc(-c4cccc(O)c4F)c(F)cc23)[C@@H](C)C1` (atropisomer, axis not shown; (M)) [Example 72-5, (M)-6-fluoro-7-(2-fluoro-3-hydroxyphenyl)-1-(4-methyl-2-(2-propanyl)-3-pyridinyl)-4-((2S)-2-methyl-4-(2-propenoyl)-1-piperazinyl)pyrido[2,3-d]pyrimidin-2(1H)-one], 2.91 | nda μM. For the compound `C=CC(=O)N1C[C@H](C)N(c2nc(=O)n(-c3c(C)ccnc3C(C)C)c3nc(Cl)c(F)cc23)[C@@H](C)C1` (atropisomer, axis not shown; (M)) [Example 72-12, (M)-7-chloro-4-((2S,6S)-2,6-dimethyl-4-(2-propenoyl)-1-piperazinyl)-6-fluoro-1-(4-methyl-2-(2-propanyl)-3-pyridinyl)pyrido[2,3-d]pyrimidin-2(1H)-one], the “Coupled exchange IC50 (5 min)” value is listed as 4.51 | nda μM. In the case of `C=CC(=O)N1C[C@@H](C)N(c2nc(=O)n(-c3c(C)ccnc3C(C)C)c3nc(Cl)c(Cl)cc23)[C@@H](C)C1` (atropisomer, axis not shown; (M)) [Example 73-11, (M)-6,7-dichloro-4-(cis-2,6-dimethyl-4-(2-propenoyl)-1-piperazinyl)-1-(4-methyl-2-(2-propanyl)-3-pyridinyl)pyrido[2,3-d]pyrimidin-2(1H)-one], the “Coupled exchange IC50 (5 min)” value was 0.625 | nda μM. Same read-out and setting: as for `C=CC(=O)N1C[C@H](C)N(c2nc(=O)n(-c3c(C)ccnc3C(C)C)c3nc(Cl)c(Cl)cc23)[C@@H](C)C1` (atropisomer, axis not shown; (M)) [Example 73-14, (M)-6,7-dichloro-4-((2S,6S)-2,6-dimethyl-4-(2-propenoyl)-1-piperazinyl)-1-(4-methyl-2-(2-propanyl)-3-pyridinyl)pyrido[2,3-d]pyrimidin-2(1H)-one], the figure is 0.711 | nda μM; as for `C=CC(=O)N1C[C@@H](C)N(c2nc(=O)n(-c3c(C)ccnc3C(C)C)c3nc(-c4c(N)cccc4F)c(Cl)cc23)[C@H](C)C1` (atropisomer, axis not shown; (M)) [Example 73-18, (M)-7-(2-amino-6-fluorophenyl)-6-chloro-4-((2R,6R)-2,6-dimethyl-4-(2-propenoyl)-1-piperazinyl)-1-(4-methyl-2-(2-propanyl)-3-pyridinyl)pyrido[2,3-d]pyrimidin-2(1H)-one], 5.54 | nda μM; as for `C=CC(=O)N1C[C@@H](C)N(c2nc(=O)n(-c3c(C)ccnc3C(C)C)c3nc(-c4c(O)cccc4F)c(Cl)cc23)[C@H](C)C1` (atropisomer, axis not shown; (M)) [Example 73-19, (M)-6-chloro-4-((2R,6R)-2,6-dimethyl-4-(2-propenoyl)-1-piperazinyl)-7-(2-fluoro-6-hydroxyphenyl)-1-(4-methyl-2-(2-propanyl)-3-pyridinyl)pyrido[2,3-d]pyrimidin-2(1H)-one], 7.55 | nda μM. As to `C=CC(=O)N1CCN(c2nc(=O)n(-c3ccccc3C(C)C)c3nc(Cl)c(Cl)cc23)[C@@H](C)C1` (atropisomer, axis not shown; (P)) [Example 61-1-2, (P)-6,7-dichloro-4-((2S)-2-methyl-4-(2-propenoyl)-1-piperazinyl)-1-(2-(2-propanyl)phenyl)pyrido[2,3-d]pyrimidin-2(1H)-one], the “Coupled exchange IC50 (5 min)” value is 20.6 | nda μM. Take `C=CC(=O)N1CCN(c2nc(=O)n(-c3c(C)ccnc3C(C)C)c3nc(Cl)c(Cl)cc23)[C@@H](C)C1` (atropisomer, axis not shown; (P)) [Example 61-2-1, (P)-6,7-dichloro-1-(4-methyl-2-(2-propanyl)-3-pyridinyl)-4-((2S)-2 methyl-4-(2-propenoyl)-1-piperazinyl)pyrido[2,3-d]pyrimidin-2(1H)-one]: the “Coupled exchange IC50 (5 min)” value is 8.24 | nda μM. On to `C=CC(=O)N1CCN(c2nc(=O)n(-c3c(CO)ccnc3C(C)C)c3nc(-c4ccccc4F)c(Cl)cc23)C(C)C1` (atropisomer, axis not shown; (P)) [Example 84-1, (P)-6-chloro-7-(2-fluorophenyl)-1-(4-(hydroxymethyl)-2-(2-propanyl)-3-pyridinyl)-4-((2S)-2-methyl-4-(2-propenoyl)-1-piperazinyl)pyrido[2,3-d]pyrimidin-2(1H)-one], for which the “Coupled exchange IC50 (5 min)” value is given as 2.71 | nda μM.

Consider `C=CC(=O)N1CCC(Oc2nc(=O)n(-c3c(C)ccnc3C(C)C)c3nc(-c4ccccc4F)c(Cl)cc23)C1` (racemic) [Example 79-2, (M)-6-chloro-7-(2-fluorophenyl)-1-(4-methyl-2-(2-propanyl)-3-pyridinyl)-4-((1-(2-propenoyl)-3-pyrrolidinyl)oxy)pyrido[2,3-d]pyrimidin-2(1H)-one], for which the “Coupled exchange IC50 (5 min)” value is given as 28.6 | nda μM. With `C=CC(=O)N1CCN(c2nc(=O)n(-c3ccccc3C3CCC3)c3nc(-c4c(O)cccc4F)c(Cl)cc23)[C@@H](C)C1` (single isomer, unassigned) [Example 54-10-1], the “Coupled exchange IC50 (5 min)” value is given as 1.21 | nda μM. `C=CC(=O)N1CCN(c2nc(=O)n(-c3ccccc3C(C)C)c3nc(-c4cc(OC(F)F)ccc4F)c(Cl)cc23)[C@@H](C)C1` (single isomer, unassigned) [Example 54-51-2]: the “Coupled exchange IC50 (5 min)” value is recorded as 1.84 | nda μM. Take `C=CC(=O)N1CCN(c2nc(=O)n(-c3ccccc3S(C)(=O)=O)c3nc(-c4c(O)cccc4F)c(Cl)cc23)[C@@H](C)C1` (single isomer, unassigned) [Example 54-56-2]: the “Coupled exchange IC50 (5 min)” value is on record as 1.24 | nda μM.

Still in this assay, the particulars now being: read-out: Coupled exchange IC50 (5 min); 5 min compound pre-incubation.
For the compound `C=CC(=O)N1CC(Nc2nc(=O)n(-c3c(C)ccnc3C(C)C)c3nc(-c4ccccc4F)c(Cl)cc23)C1` (atropisomer, axis not shown; (M)) [Example 76-1, (M)-6-Chloro-7-(2-fluorophenyl)-1-(4-methyl-2-(2-propanyl)-3-pyridinyl)-4-((1-(2-propenoyl)-3-azetidinyl)amino)pyrido[2,3-d]pyrimidin-2(1H)-one], the pIC50 was 3.93.

Turning to `C=CC(=O)N1CC(Oc2nc(=O)n(-c3c(C)ccnc3C(C)C)c3nc(-c4ccccc4F)c(Cl)cc23)C1` (atropisomer, axis not shown; (M)) [Example 79-1, (M)-6-Chloro-7-(2-fluorophenyl)-1-(4-methyl-2-(2-propanyl)-3-pyridinyl)-4-((1-(2-propenoyl)-3-azetidinyl)oxy)pyrido[2,3-d]pyrimidin-2(1H)-one], the pIC50 is 5.48. Take `C=CC(=O)N1CCN(c2nc(=O)n(-c3c(C)cccc3C(C)C)c3nc(Cl)c(Cl)cc23)[C@@H](C)C1` (atropisomer, axis not shown; (M)) [Example 112, (M)-6,7-Dichloro-1-(2-methyl-6-(2-propanyl)phenyl)-4-((2S)-2-methyl-4-(2-propenoyl)-1-piperazinyl)pyrido[2,3-d]pyrimidin-2(1H)-one]: the pIC50 is 5.61. On the same count and under the same terms, as for `C=CC(=O)N1CCN(c2nc(=O)n(-c3c(C(C)C)ncc(O)c3C)c3nc(-c4ccccc4F)c(Cl)cc23)[C@@H](C)C1` (atropisomer, axis not shown; (P)) [Example 83-1, (P)-6-Chloro-7-(2-fluorophenyl)-1-(5-hydroxy-4-methyl-2-(2-propanyl)-3-pyridinyl)-4-((2S)-2-methyl-4-(2-propenoyl)-1-piperaninyl)pyrido[2,3-d]pyrimidin-2(1H)-one], the figure is 6.26.
